Results as given in patent publication US8143192B2, “Methods for increasing the resistance of plants to hypoxic conditions” (Bayer Cropscience N.V., priority 2005, dated 2012).
Read-outs that look alike come from different tables or passages of the source.

Legend:
[1] = tested on: Arabidopsis thaliana cv. C24 plants; assay: Depth of Arabidopsis root growth in growth medium after application of 6-chloronicotinic acid (6-CNA); type: in vivo; details: for Root depth, mean: after three weeks, untreated mean 2.031034
Experimental: Sterilization of Arabidopsis seeds: 2 min.
Low light overnight to 24 hours.
Plants are grown at 23° C. 30-50 μEinstein s^−1m^−2. 12 hours light-12 hours dark. (See FIG. 1)

[2] = tested on: Arabidopsis thaliana cv. C24 plants; details: 0.7% Difco agar; for Root depth, mean: after three weeks, untreated mean 1.9475, *p < 0.01
Experimental: A container (1) with a seal (2) is filled with a transparent or translucent growth medium (3), such as 0.4% agar-water or 0.7% agar-water, to which additional test-compounds may be added. One pregerminated seed is added to the tube and allowed to grow for three weeks. After three weeks of growth in vertical position, the root depth (5) of the plant (4) is measured from the top of the medium to the lowest point of the roots.
Germination medium: Half concentrated Murashige and Skoog salts; B5 vitamins; 1.5% sucrose; pH 5.8; 0.4% Difco agar.
Sterilization of Arabidopsis seeds: 2 min. 70% ethanol; 10 min. bleach (6% active chlorine)+1 drop Tween 20 for 20 ml solution; wash 5 times with sterile tap water; sterilization is done in 2 ml eppendorf tubes. Arabidopsis seeds sink to the bottom of the tube, allowing removal of the liquids by means of a 1 ml pipetman.
Pregermination of seeds: In 9 cm Optilux Petridishes (Falcon) containing 10 ml sterile tap water. Low light overnight to 24 hours.
Growing of Arabidopsis plants: Seeds are sown in 25×150 mm glass tubes (Sigma C5916) with natural (transparent) colored closure (Sigma C5791) containing ±34 ml germination medium: 1 seed/tube. The tubes are put in the two outer rows of tube holders for 40 tubes (VWR nalg5970-0025) wrapped in aluminium foil so that the roots can grow in the dark. Plants are grown at 23° C. 30-50 μEinstein s^−1m^−2. 12 hours light-12 hours dark.
After three weeks, the root depth is measured from the surface of the medium to the lowest point of root growth.

## O=C(O)c1ccc(Cl)nc1 [6-CNA, 6-chloronicotinic acid]
[1]; 1 mg/L 6-CNA in germination medium, *p < 0.01
  Root depth, mean: 2.18 mm
[1]; 5 mg/L 6-CNA in germination medium, **p < 0.05
  Root depth, mean: 2.118 mm
[1]; 1 and 5 mg/l 6-CNA, three weeks
  Root protrusion into growth medium compared to non-treated plants: protruded deeper in the growth medium

## O=[N+]([O-])/N=C1\NCCN1Cc1ccc(Cl)nc1 [imidacloprid]
[2]; 50 mg/L imidacloprid in germination medium
  Root depth, mean: 2.1875 mm
[2]; 100 mg/L imidacloprid in germination medium
  Root depth, mean: 2.2725 mm
[2]; 50 and 100 mg/l imidacloprid, three weeks
  Root protrusion into growth medium compared to non-treated plants: protruded deeper in the growth medium
